Each structure is given as a SMILES string.

The data set can be described thus: RP, Waters ACQUITY Premier BEH C18, 100 × 2.1 mm, 1.7 µm, 40 °C, 0.3 to 0.4 mL/min, estimated dead time 0.73 min; A: water + 0.1% formic acid; B: acetonitrile + 0.1% formic acid; gradient (min/%B) 0/0.5 0.1/0.5 10/80 10.1/99.5 12/0.5 12.1/0.5 14.5/0.5. As to conditions: stereoisomer not certain.
For `CC1CCC2(C(=O)O)CCC3(C)C(=CCC4C5(C)CC(O)C(O)C(C)(CO)C5CCC43C)C2C1C` (centres undefined) [ASIATIC ACID], the LC retention time is 7.17 min. The value for `C=Cc1c(C)c2cc3[nH]c(cc4nc(cc5nc(cc1[nH]2)C(C)=C5CCC(=O)O)C(CCC(=O)O)=C4C)c(C)c3C=C` [PROTOPORPHYRIN] was 9.14 min; that for `O=C(C=CC=Cc1ccc2c(c1)OCO2)N1CCCCC1` [PIPERINE] was 7.22 min; that for `COc1cc(C2Oc3cc(C4Oc5cc(O)cc(O)c5C(=O)C4O)ccc3OC2CO)ccc1O` (centres undefined) [SILIBININ] was 5.88 min. The value for `O=C(O)C(=O)Cc1ccccc1` [PHENYLPYRUVATE] was 5.38 min.

With `CC12CCC(=O)C=C1CCC1C2CCC2(C)C1CCC2(O)C(=O)CO` (centres undefined) [CORTEXOLONE], the LC retention time is 6.74 min. The value for `N[C@@H](Cc1ccc(O)c(O)c1)C(=O)O` [L-DOPA] was 1.7 min; that for `O=CNC(Cc1ccccc1)C(=O)O` (centres undefined) [N-FORMYLPHENYLALANINE] was 4.77 min; that for `COc1cc(C=CC(=O)CC(=O)C=Cc2ccc(O)c(OC)c2)ccc1O` [CURCUMIN] was 7.18 min. The value for `NCCOP(=O)(O)OP(=O)(O)OCC1OC(n2ccc(N)nc2=O)C(O)C1O` (centres undefined) [CDP-ETHANOLAMINE] was 0.882 min; that for `O=C(O)c1ccc(CO)o1` [SUMIKI'S ACID] was 3.65 min; that for `CC(=O)Nc1c(NC=O)[nH]c(=O)n(C)c1=O` [5-ACETYLAMINO-6-FORMYLAMINO-3-METHYLURACIL] was 1.11 min. The value for `NC(Cc1cc(I)c(Oc2ccc(O)c(I)c2)c(I)c1)C(=O)O` (centres undefined) [LIOTHYRONINE] was 6.23 min; that for `COc1cc2c(cc1O)CCC1C2CCC2(C)C(=O)CCC12` (centres undefined) [2-METHOXYESTRONE] was 7.38 min; that for `CCC(C)C(=O)C(=O)O` (centres undefined) [3-METHYL-2-OXOVALERATE] was 4.42 min. As for `CCCCCCCCCCCCCCCC(=O)NCCO` [PALMITOYLETHANOLAMIDE], the LC retention time is 8.84 min. The value for `C[N+](C)(C)C(Cc1c[nH]c2ccccc12)C(=O)[O-]` (centres undefined) [LENTICIN] was 3.64 min. The value for `O=C(O)C1OC(Oc2c(-c3ccc(O)c(O)c3)oc3cc(O)cc(O)c3c2=O)C(O)C(O)C1O` (centres undefined) [QUERCETIN 3-O-GLUCURONIDE] was 4.41 min; that for `CSCCC(NC(C)=O)C(=O)O` (centres undefined) [N-ACETYLMETHIONINE] was 4.21 min; that for `O=C(OC1OC2COC(=O)c3cc(O)c(O)c(O)c3-c3c(cc(O)c(O)c3O)C(=O)OC(C2O)C1O)c1cc(O)c(O)c(O)c1` (centres undefined) [CORILAGIN] was 4.37 min. The value for `O=C(O)c1ccccc1C(=O)O` [PHTHALIC ACID] was 4.52 min; that for `CC(CCC(=O)O)C1CCC2C3C(O)CC4CC(O)CCC4(C)C3CC(O)C12C` (centres undefined) [CHOLATE] was 7.13 min; that for `O=C(O)c1c(O)cc(O)cc1O` [2,4,6-TRIHYDROXYBENZOIC ACID] was 3.9 min. For the molecule `Nc1nc2c(ncn2C2OC(COP(=O)(O)O)C(O)C2O)c(=O)[nH]1` (centres undefined) [GUANOSINE MONOPHOSPHATE], the LC retention time is 1.57 min. The value for `O=Cc1cccc(O)c1` [3-HYDROXYBENZALDEHYDE] was 5.11 min. As to `O=c1cc(-c2ccc(O)c(O)c2)oc2c(C3OC(CO)C(O)C(O)C3O)c(O)cc(O)c12` (centres undefined) [ORIENTIN], the LC retention time is 5.18 min. The value for `COc1cc(CNC(=O)CCCCC=CC(C)C)ccc1O` [CAPSAICIN] was 7.3 min; that for `O=C(O)C1CCC(O)CC1` (centres undefined) [4-HYDROXYCYCLOHEXYLCARBOXYLIC ACID] was 4.05 min; that for `Cc1cn(C2CC(O)C(COP(=O)(O)OP(=O)(O)OC3OC(CO)C(O)C(O)C3O)O2)c(=O)[nH]c1=O` [DTDP-D-GLUCOSE] was 1.82 min. The value for `O=C(CCc1ccc(O)cc1)c1c(O)cc(O)cc1O` [PHLORETIN] was 6.03 min; that for `C[N+](C)(C)CCCC(=O)[O-]` [DEOXYCARNITINE] was 0.901 min; that for `CC(=O)NCCC(=O)O` [N-ACETYL-BETA-ALANINE] was 1.03 min.

`CC1=C(O)C(=O)C=C2C1=CC=C1C2(C)CCC2(C)C3CC(C)(C(=O)O)CCC3(C)CCC12C` (centres undefined) [CELASTROL]: the LC retention time is 8.6 min. As for `Cc1c[nH]c(=O)[nH]c1=O` [THYMINE], the LC retention time was 2.99 min.

`CC1(C)C=Cc2c(ccc3c2OCC(c2ccc(O)cc2O)C3)O1` [(R)-GLABRIDIN]: the LC retention time is 7.48 min.

`CC(C)(C)C1(O)CC2OC(=O)CC23C(=O)OC2OC(=O)C(O)C231` (centres undefined) [BILOBALIDE]: the LC retention time is 4.91 min. The value for `O=c1cc(-c2ccc(O)c(-c3c(O)cc(O)c4c(=O)cc(-c5ccc(O)cc5)oc34)c2)oc2cc(O)cc(O)c12` [AMENTOFLAVONE] was 6.35 min.

For the molecule `O=C(C=Cc1ccc(O)c(O)c1)OC(Cc1ccc(O)c(O)c1)C(=O)O` (centres undefined) [ROSMARINATE], the LC retention time was 5.44 min. The value for `NC(CCSSCCC(N)C(=O)O)C(=O)O` (centres undefined) [HOMOCYSTINE] was 0.958 min; that for `CC(C)C(=O)O` [ISOBUTYRATE] was 3.67 min. `COc1ccc(C2CC(=O)c3c(O)cc(O)cc3O2)cc1O` (centres undefined) [HESPERETIN]: the LC retention time was 6.26 min. In the case of `Cn1cc(C(N)=O)ccc1=O` [N1-METHYL-2-PYRIDONE-5-CARBOXAMIDE], the LC retention time was 1.12 min. The value for `COc1cc(CC(COC2OC(CO)C(O)C(O)C2O)C(COC2OC(CO)C(O)C(O)C2O)Cc2ccc(O)c(OC)c2)ccc1O` (centres undefined) [SECOISOLARICIRESINOL DIGLUCOSIDE] was 4.58 min; that for `O=C(O)Cc1c[nH]c2ccc(O)cc12` [5-HYDROXYINDOLEACETATE] was 4.41 min. The value for `Cn1c(=O)c2[nH]cnc2n(C)c1=O` [THEOPHYLLINE] was 3.96 min; that for `O=C(O)C1=COC(OC2OC(CO)C(O)C(O)C2O)C2C(CO)=CCC12` (centres undefined) [GENIPOSIDIC ACID] was 1.89 min. The value for `O=C(O)CCCCCCCC(=O)O` [AZELATE] was 5.52 min; that for `O=C(O)CNC(=O)C=Cc1ccccc1` [CINNAMOYLGLYCINE] was 5.02 min. Turning to `O=C(O)c1cccc(O)c1` [3-HYDROXYBENZOATE], the LC retention time was 4.72 min. The value for `NC1CCSC1=O` (centres undefined) [HOMOCYSTEINE THIOLACTONE] was 0.939 min; that for `CC(=O)OC(CC(=O)O)C[N+](C)(C)C` (centres undefined) [O-ACETYLCARNITINE] was 1.48 min.

`COc1ccc(C2CC(=O)c3c(O)cc(OC4OC(CO)C(O)C(O)C4OC4OC(C)C(O)C(O)C4O)cc3O2)cc1O` (centres undefined) [HESPERETIN 7-NEOHESPERIDOSIDE]: the LC retention time is 4.83 min. The value for `COc1ccc2c3c([nH]c2c1)C(C)=NCC3` [HARMALINE] was 4.51 min; that for `Cn1c(=O)[nH]c(=O)c2[nH]cnc21` [3-METHYLXANTHINE] was 1.3 min.

The values are drawn from the RepoRT retention time repository.
